Results on 8 molecules are retold here after patent EP0039857A1, “Preparation for the care of the skin” (Henkel Kommanditgesellschaft auf Aktien, priority 1980, dated 1981).

The target of assay [1] is T1, Lipase aus Rhizopus arrhizus (Triacylglyceroacylhydrolase EC 3.1.1.3) (Rhizopus oryzae, UniProt P61872).
T1 construct: Lipase aus Rhizopus arrhizus (Triacylglyceroacylhydrolase EC 3.1.1.3); host or cells: Rhizopus arrhizus (natural producer)
T1 sequence (P61872 96-392): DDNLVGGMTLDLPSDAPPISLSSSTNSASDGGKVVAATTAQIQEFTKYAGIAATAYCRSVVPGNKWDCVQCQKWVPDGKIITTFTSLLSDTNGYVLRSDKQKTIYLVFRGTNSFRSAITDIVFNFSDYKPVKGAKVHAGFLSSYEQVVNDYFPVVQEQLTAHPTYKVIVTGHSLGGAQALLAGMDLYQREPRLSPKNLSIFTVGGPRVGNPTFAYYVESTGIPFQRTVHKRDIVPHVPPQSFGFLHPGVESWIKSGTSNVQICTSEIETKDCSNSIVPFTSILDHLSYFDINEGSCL
Kind of assay: Enzyme inhibition test, lipase (acidimetric comparison with control). Format: biochemical. Particulars: read-out: Hemmwerte in % gegen Lipase; for inhibition at 2500 ppm: substrate Olivenöl, enzyme 0,25 mg in 20 ml. How it is done:
(§1) Zur Feststellung der enzyminhibierenden Wirksamkeit wurde folgende Testmethodik verwendet. Es wurden jeweils 0,2 Mol in 10 bis 20 ml physiologischer NatriumchloridLösung Substrat eingesetzt. Als Testenzyme dienten: • Esterase aus Schweineleber (Carboxylic-esterhydrolase EC 3.1.1.1) • Spezifische Aktivität: circa 100 U/mg, Einsatzkonzentration: 1 mg in 16 ml Lösung. • Als Substrat diente Citronensäuretriethylester. • Lipase aus Rhizopus arrhizus (Triacylglyceroacylhydrolase EC 3.1.1.3) • Spezifische Aktivität: circa 1 200 U/mg, Einsatzkonzentration: 0,25 mg in 20 ml Lösung • Als Substrat diente Olivenöl. Zur Stabilisierung der Emulsion wurde Natriumdesoxycholat und Gummi arabicum verwendet. Die Hemmwerte wurden bestimmt durch azidimetrischen Vergleich der Kontrolle mit der durch die Prüfsubstanz gehemmten Reaktion und in % ausgedrückt. Als Konzentration für die Hemmsubstanzen wurden 2 500 ppm gewählt.

The test system of assay [2] is Esterase aus Schweineleber (Carboxylic-esterhydrolase EC 3.1.1.1). Kind of assay: Enzyme inhibition test, esterase (acidimetric comparison with control). It counts as biochemical, Schwein. Particulars: 2 500 ppm test substance; substrate Citronensäuretriethylester; enzyme 1 mg in 16 ml. How it is done:
as §1

As to `CCN(CC)C(=O)Cc1ccc(Cl)cc1` [Produkt A, p-Chlorphenylacet-diethylamid], in assay [1], the inhibition at 2500 ppm was 23%. The “Hemmwerte in % gegen Esterase” value in assay [2] was 77%.

`CCN(CC)C(=O)Cc1ccc(OC)c(OC)c1` [Produkt B, 3,4-Dimethoxy-phenylacet-diethylamid]: the inhibition at 2500 ppm in assay [1] was determined as 10%. The “Hemmwerte in % gegen Esterase” value in assay [2] is 60%.

`CCN(CC)C(=O)CC(c1ccccc1)c1ccccc1` [Produkt C, 3,3-Diphenyl-propionsäure-diethylamid]: the inhibition at 2500 ppm in assay [1] worked out at 12%. The “Hemmwerte in % gegen Esterase” value in assay [2] was 57%.

Take `CCN(CC)C(=O)C(C)(C)Oc1ccc(Cl)cc1` [Produkt D, 2-(p-Chlorphenoxy)-2-methylpropionsäure-diethylamid]: the inhibition at 2500 ppm in assay [1] worked out at 52%. In addition, the “Hemmwerte in % gegen Esterase” value in assay [2] is 11%.

As to `CCN(CC)C(=O)C(C)(C)Sc1ccc(Cl)cc1` [Produkt E, 2-(p-Chlor-phenylthio)-2-methylpropionsäure-diethylamid], the inhibition at 2500 ppm in assay [1] came out at 59%. Also, the “Hemmwerte in % gegen Esterase” value in assay [2] is 30%.

Consider `CCN(CC)C(=O)COc1ccc(Cl)cc1` [Produkt F, p-Chlor-phenoxyacet-diethylamid], for which the inhibition at 2500 ppm in assay [1] stood at 10%. The “Hemmwerte in % gegen Esterase” value in assay [2] is reported as 65%.

For the molecule `CCN(CC)C(=O)COc1ccc(C)c(C)c1` [Produkt G, 3,4-Dimethyl-phenoxyacet-diethylamid], in assay [1], the inhibition at 2500 ppm worked out at 12%. Moreover, the “Hemmwerte in % gegen Esterase” value in assay [2] stood at 48%.

For the molecule `CCOC(=O)C(O)(c1ccccc1)c1ccccc1` [Produkt H, Benzilsäure-ethylester], the inhibition at 500 ppm in assay [1] came to 28%. Besides, the “Hemmwerte in % gegen Esterase” value in assay [2] was found to be 54%.
